Assay results taken from PubChem BioAssay AID328 (DTP/NCI, 2004).
“And” between values parts separate entries of the source, which are not always exact repeats. Equal values may be shown once. Inconclusive results and toxic doses are left out.

Test system: BDF1 mice, P388 leukemia ip, median survival T/C
Assay: NCI In Vivo Anticancer Drug Screen. Data for tumor model P388 Leukemia (intraperitoneal) in B6D2F1 (BDF1) mice
Conditions: endpoint: median survival time, higher = longer survival
Method in brief: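 Vehicle-dosed animals serve as the reference; survival of compound-dosed, tumour-implanted mice is divided by it.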

[1] = dose: 50.0 mg/kg/injection, schedule: Q01DX009 (ip), vehicle: saline with Tween-80
[2] = dose: 100.0 mg/kg/injection, schedule: Q01DX009 (ip), vehicle: saline with Tween-80
[3] = dose: 200.0 mg/kg/injection, schedule: Q01DX009 (ip), vehicle: saline with Tween-80
[4] = dose: 25.0 mg/kg/injection, schedule: Q01DX009 (ip), vehicle: saline
[5] = dose: 100.0 mg/kg/injection, schedule: Q01DX009 (ip), vehicle: saline
[6] = dose: 200.0 mg/kg/injection, schedule: Q01DX009 (ip), vehicle: saline
[7] = dose: 12.5 mg/kg/injection, schedule: Q01DX009 (ip), vehicle: saline with Tween-80
[8] = dose: 25.0 mg/kg/injection, schedule: Q01DX009 (ip), vehicle: saline with Tween-80
[9] = dose: 100.0 mg/kg/injection, schedule: Q04DX003 (ip), vehicle: Klucel (hydroxypropylcellulose) (HPC)
[10] = dose: 200.0 mg/kg/injection, schedule: Q04DX003 (ip), vehicle: Klucel (hydroxypropylcellulose) (HPC)
[11] = dose: 400.0 mg/kg/injection, schedule: Q04DX003 (ip), vehicle: Klucel (hydroxypropylcellulose) (HPC)
[12] = dose: 100.0 mg/kg/injection, schedule: Q04DX003 (ip), vehicle: saline with Tween-80
[13] = dose: 400.0 mg/kg/injection, schedule: Q01DX009 (ip), vehicle: saline with Tween-80
[14] = dose: 400.0 mg/kg/injection, schedule: Q04DX003 (ip), vehicle: saline with Tween-80
[15] = dose: 12.5 mg/kg/injection, schedule: Q01DX009 (ip), vehicle: saline
[16] = dose: 50.0 mg/kg/injection, schedule: Q01DX009 (ip), vehicle: saline

FC(F)(F)c1nc2nc(Cl)c(Cl)nc2[nH]1
T/C (dose: 10.0 mg/kg/injection, schedule: Q01DX009 (ip), vehicle: other): 100 % of control | T/C (dose: 20.0 mg/kg/injection, schedule: Q01DX009 (ip), vehicle: other): 109 % of control | T/C (dose: 26.6 mg/kg/injection, schedule: Q01DX009 (ip), vehicle: other): 120 % of control | T/C (dose: 44.0 mg/kg/injection, schedule: Q04DX003 (ip), vehicle: other): 118 % of control | T/C (dose: 100.0 mg/kg/injection, schedule: Q04DX003 (ip), vehicle: other): 150 % of control

O=[N+]([O-])c1ccc(/C=C/c2cc(N(CCO)CCO)c3ccccc3n2)cc1
T/C [1]: 94 % of control | T/C [2]: 99 % of control | T/C [3]: 100 % of control

C1CC[N-]CC1.C1CC[N-]CC1.O=C(O)C(=O)O.[Pt+2]
T/C [4]: 120 % of control | T/C (dose: 80.0 mg/kg/injection, schedule: Q01DX005 (ip), vehicle: Klucel (hydroxypropylcellulose) (HPC)): 123 % of control | T/C [5]: 120 % of control | T/C [6]: 100 % of control | T/C (dose: 400.0 mg/kg/injection, schedule: Q04DX003 (ip), vehicle: saline): 118 % of control

O=S(=O)(Sc1ccc(N(CCCl)CCCl)cc1)c1ccc(N(CCCl)CCCl)cc1
T/C [2]: 122 % of control | T/C (dose: 132.0 mg/kg/injection, schedule: Q01DX009 (ip), vehicle: saline with Tween-80): 110 % of control

CC1NC(=O)OC1C(C)(C)C (centres undefined)
T/C [7]: 88 % of control | T/C [8]: 98 % of control | T/C [1]: 86 % of control and 95 % of control

CC1([CH2][Hg][Cl])Cc2ccccc2O1 (centres undefined)
T/C (dose: 1.56 mg/kg/injection, schedule: Q04DX003 (ip), vehicle: saline with Tween-80): 92 % of control | T/C (dose: 3.13 mg/kg/injection, schedule: Q04DX003 (ip), vehicle: saline with Tween-80): 88 % of control

CCOC(=O)C(OCC)P(=O)(OCC)OCC (centres undefined)
T/C (dose: 25.0 mg/kg/injection, schedule: Q04DX003 (ip), vehicle: Klucel (hydroxypropylcellulose) (HPC)): 93 % of control | T/C (dose: 50.0 mg/kg/injection, schedule: Q04DX003 (ip), vehicle: Klucel (hydroxypropylcellulose) (HPC)): 97 % of control | T/C [9]: 91 % of control | T/C [10]: 90 % of control | T/C [11]: 93 % of control

CO/N=C1\CC(C)N2C(=O)C(C(C)C)NC(=O)C(NC(=O)c3c4nc5c(C(=O)NC6C(=O)NC(C(C)C)C(=O)N7C(C)CC(O)C7C(=O)N(C)CC(=O)N(C)C(C(C)C)C(=O)OC6C)ccc(C)c5oc-4c(C)c(=O)c3N)C(CO)OC(=O)C(C)N(C)C(=O)CN(C)C(=O)C12 (centres undefined)
T/C (dose: 0.05 mg/kg/injection, schedule: Q01DX009 (ip), vehicle: saline + alcohol): 99 % of control | T/C (dose: 0.1 mg/kg/injection, schedule: Q01DX009 (ip), vehicle: saline + alcohol): 100 % of control | T/C (dose: 0.15 mg/kg/injection, schedule: Q04DX003 (ip), vehicle: saline + alcohol): 98 % of control | T/C (dose: 0.2 mg/kg/injection, schedule: Q01DX009 (ip), vehicle: saline + alcohol): 102 % of control | T/C (dose: 0.3 mg/kg/injection, schedule: Q04DX003 (ip), vehicle: saline + alcohol): 100 % of control | T/C (dose: 0.4 mg/kg/injection, schedule: Q01DX001 (ip), vehicle: saline + alcohol): 92 % of control | T/C (dose: 0.6 mg/kg/injection, schedule: Q04DX003 (ip), vehicle: saline + alcohol): 105 % of control | T/C (dose: 0.8 mg/kg/injection, schedule: Q01DX001 (ip), vehicle: saline + alcohol): 110 % of control | T/C (dose: 1.2 mg/kg/injection, schedule: Q04DX003 (ip), vehicle: saline + alcohol): 107 % of control | T/C (dose: 1.6 mg/kg/injection, schedule: Q01DX001 (ip), vehicle: saline + alcohol): 110 % of control | T/C (dose: 2.4 mg/kg/injection, schedule: Q04DX003 (ip), vehicle: saline + alcohol): 115 % of control | T/C (dose: 3.2 mg/kg/injection, schedule: Q01DX001 (ip), vehicle: saline + alcohol): 118 % of control

COc1cccc2c1C(=O)c1c(O)c3c(c(O)c1C2=O)C[C@@](O)(/C(C)=N/NC(=O)c1ccccc1)C[C@@H]3OC1CC(N(C)C)C(O)C(C)O1 (some centres undefined)
T/C (dose: 0.78 mg/kg/injection, schedule: Q01DX009 (ip), vehicle: water): 161 % of control | T/C (dose: 1.56 mg/kg/injection, schedule: Q01DX009 (ip), vehicle: water): 186 % of control | T/C (dose: 3.13 mg/kg/injection, schedule: Q01DX009 (ip), vehicle: water): 236 % of control | T/C (dose: 6.25 mg/kg/injection, schedule: Q01DX009 (ip), vehicle: water): 96 % of control

NNc1ccc([N+](=O)[O-])c2[nH][nH]c(=O)c12
T/C [1]: 105 % of control | T/C [2]: 107 % of control | T/C [3]: 107 % of control

CC(C(=O)c1ccccc1)C(Cl)c1ccccc1 (centres undefined)
T/C [1]: 95 % of control | T/C [2]: 94 % of control | T/C [12]: 89 % of control | T/C [3]: 86 % of control | T/C (dose: 200.0 mg/kg/injection, schedule: Q04DX003 (ip), vehicle: saline with Tween-80): 89 % of control | T/C [13]: 86 % of control | T/C [14]: 98 % of control

COc1cc2c(cc1OC)C1CCc3cc4c(cc3C1N=C2)OCO4 (centres undefined)
T/C (dose: 20.0 mg/kg/injection, schedule: Q01DX009 (ip), vehicle: saline): 100 % of control | T/C (dose: 40.0 mg/kg/injection, schedule: Q01DX009 (ip), vehicle: saline): 105 % of control | T/C (dose: 80.0 mg/kg/injection, schedule: Q01DX009 (ip), vehicle: saline): 105 % of control | T/C (dose: 120.0 mg/kg/injection, schedule: Q01DX009 (ip), vehicle: saline): 105 % of control | T/C (dose: 240.0 mg/kg/injection, schedule: Q01DX009 (ip), vehicle: saline): 100 % of control

CC/C(C)=C1\OC(=O)C(C)C(O)C(Cc2cccnc2)NC(=O)C(NC(=O)c2ncccc2O)C(C)OC1=O (centres undefined)
T/C (dose: 3.13 mg/kg/injection, schedule: Q01DX009 (ip), vehicle: saline with Tween-80): 97 % of control | T/C (dose: 6.25 mg/kg/injection, schedule: Q01DX009 (ip), vehicle: saline with Tween-80): 106 % of control | T/C [7]: 103 % of control | T/C [8]: 93 % of control

Oc1cc2c(cc1O)C1c3ccc(O)c(O)c3OCC1(O)C2 (centres undefined)
T/C [1]: 97 % of control | T/C [2]: 118 % of control | T/C [3]: 102 % of control | T/C [13]: 103 % of control

CCC(C)C(NC(=O)OCc1ccccc1)C(=O)ON1C(=O)CCC1=O (centres undefined)
T/C [12]: 118 % of control | T/C [14]: 109 % of control

CC(=O)c1ccc(F)c(C)c1
T/C (dose: 100.0 mg/kg/injection, schedule: Q01DX001 (ip), vehicle: saline sonified): 105 % of control | T/C (dose: 200.0 mg/kg/injection, schedule: Q01DX001 (ip), vehicle: saline sonified): 110 % of control | T/C (dose: 400.0 mg/kg/injection, schedule: Q01DX001 (ip), vehicle: saline sonified): 105 % of control

CC(=N\O)/C(C)=N/O.CC(=N\O)/C(C)=N/O.[Cl][Co][Cl]
T/C (dose: 6.25 mg/kg/injection, schedule: Q01DX009 (ip), vehicle: saline): 90 % of control and 99 % of control | T/C [15]: 100 % of control | T/C [4]: 99 % of control | T/C [16]: 94 % of control and 110 % of control | T/C [5]: 91 % of control and 110 % of control | T/C [6]: 100 % of control

O=C(O)C1CCC2CCCCC2[N-]1.O=C(O)C1CCC2CCCCC2[N-]1.[Cu+2] (centres undefined)
T/C (dose: 6.25 mg/kg/injection, schedule: Q04DX003 (ip), vehicle: saline): 100 % of control | T/C (dose: 12.5 mg/kg/injection, schedule: Q04DX003 (ip), vehicle: saline): 90 % of control | T/C (dose: 25.0 mg/kg/injection, schedule: Q04DX003 (ip), vehicle: saline): 100 % of control

COC(=O)CCCCCCCC(=O)OCC#CC#CCOC(=O)CCCCCCCC(=O)OC
T/C [9]: 109 % of control | T/C [10]: 104 % of control | T/C [11]: 104 % of control

O=C1OC2CC=CCC2CC1O (centres undefined)
T/C [15]: 92 % of control | T/C [4]: 96 % of control | T/C [16]: 102 % of control | T/C [5]: 102 % of control

CSc1nccc(=O)n1-c1cccc(C(F)(F)F)c1
T/C [9]: 107 % of control | T/C [10]: 107 % of control

Oc1ccccc1C=Nc1ccccc1.Oc1ccccc1C=Nc1ccccc1.[Ni+2]
T/C (dose: 25.0 mg/kg/injection, schedule: Q04DX003 (ip), vehicle: saline sonified): 100 % of control | T/C (dose: 50.0 mg/kg/injection, schedule: Q04DX003 (ip), vehicle: saline sonified): 113 % of control

CS(=O)(=O)c1ncc2cnccn12
T/C (dose: 100.0 mg/kg/injection, schedule: Q04DX003 (ip), vehicle: water): 110 % of control

O=C(/C=C/c1ccncc1)c1cccc2ccccc12
T/C [15]: 102 % of control | T/C [4]: 108 % of control | T/C [16]: 100 % of control | T/C [5]: 116 % of control
